# Where a SMILES comes first, the peptide text is derived from it. [ ]: non-standard residue; d: D form. The star is where a group is joined. Acetyl(2-naphthyloxy) = O=C(COc1ccc2ccccc2c1)*; Acetyl(2-naphthyl) = O=C(Cc1ccc2ccccc2c1)*; Met(O) = CS(=O)CC[C@H](N)C(=O)O; Nle = CCCC[C@H](N)C(=O)O; NHiBu = CC(C)CN*; X3 = CCC(C)CN*
# Target: T1, specific ANP receptor sites on BASM or BAE cells (Bos taurus, UniProt P10730)
# T1 construct: specific receptor sites on BASM or BAE cells; endogenous in cells; host or cells: cultured BASM and BAE cells
# T1 sequence (P10730 42-537): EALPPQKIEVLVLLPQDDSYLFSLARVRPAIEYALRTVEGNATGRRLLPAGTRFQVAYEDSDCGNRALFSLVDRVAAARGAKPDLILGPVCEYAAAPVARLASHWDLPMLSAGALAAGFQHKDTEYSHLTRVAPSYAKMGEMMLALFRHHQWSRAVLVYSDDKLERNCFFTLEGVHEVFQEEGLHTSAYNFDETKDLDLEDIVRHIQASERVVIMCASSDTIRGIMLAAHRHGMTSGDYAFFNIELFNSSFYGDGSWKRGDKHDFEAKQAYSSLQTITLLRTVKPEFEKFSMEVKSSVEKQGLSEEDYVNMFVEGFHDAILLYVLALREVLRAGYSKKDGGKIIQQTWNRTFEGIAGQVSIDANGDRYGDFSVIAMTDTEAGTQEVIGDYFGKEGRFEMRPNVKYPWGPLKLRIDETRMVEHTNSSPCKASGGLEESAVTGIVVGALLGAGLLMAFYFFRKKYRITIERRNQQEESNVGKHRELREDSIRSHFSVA
# Test: Competitive displacement receptor binding of (125I)-rANP(126-150) on cultured cells
# Design: species or system bovine
# Conditions: for Ki(app): concentration of unlabeled peptide displacing 50% of maximal binding of 0.5 nM (125I)-rANP(126-150), BASM or BAE cells
# Source text: Analogous "competitive displacement" receptor binding assays are considered commonplace in the art for examining specific ligand-receptor interactions.
# Assuming these ANP analogs act at one or more ANP receptor sites, then increased receptor affinity should reflect increased biological potency.
Compound,Ki(app) [nM],"receptor binding / activity as judged by Ki, in words"
"CC[C@H](C)[C@H](NC(=O)[C@H](CCCNC(=N)N)NC(=O)[C@H](CC(=O)O)NC(=O)[C@@H](NC(=O)[C@H](C)NC(=O)CNC(=O)CNC(=O)Cc1ccc2ccccc2c1)[C@@H](C)CC)C(N)=O [AP338, (2-NA)--G--G--A--I--D--R--I--NH2] ({Acetyl(2-naphthyl)}-GGAIDRI-NH2)",82.6,
CC[C@H](C)[C@H](NC(=O)[C@H](CCCNC(=N)N)NC(=O)CNC(=O)CNC(=O)COc1ccc2ccccc2c1)C(=O)N[C@@H](CC(=O)O)C(=O)N[C@@H](CCCNC(=N)N)C(=O)NCC(C)C [AP509] ({Acetyl(2-naphthyloxy)}-GGRIDR-NHiBu),120.0,
CC[C@H](C)[C@H](NC(=O)[C@H](CCCNC(=N)N)NC(=O)CNC(=O)CNC(=O)Cc1ccc2ccccc2c1)C(=O)N[C@@H](CC(=O)O)C(=O)N[C@@H](CCCNC(=N)N)C(=O)NCC(C)C [AP510] ({Acetyl(2-naphthyl)}-GGRIDR-NHiBu),116.0,
"CCC(C)CNC(=O)[C@H](CCCNC(=N)N)NC(=O)[C@H](CC(=O)O)NC(=O)[C@@H](NC(=O)[C@H](CCCNC(=N)N)NC(=O)CNC(=O)CNC(=O)Cc1ccc2ccccc2c1)[C@@H](C)CC (some centres unmarked) [AP511, (2-NA)GGRIDRNHCH2CH(CH3)CH3 CH3] ({Acetyl(2-naphthyl)}-GGRIDR-X3)",84.7,
"CC[C@H](C)[C@H](NC(=O)[C@H](CCCNC(=N)N)NC(=O)[C@H](CC(=O)O)NC(=O)[C@@H](NC(=O)[C@H](CC(C)C)NC(=O)CNC(=O)CNC(=O)Cc1ccc2ccccc2c1)[C@@H](C)CC)C(N)=O [AP512, (2-NA)--G--G--L--I--D--R--I--NH2] ({Acetyl(2-naphthyl)}-GGLIDRI-NH2)",> 160,"very low, if any, activity"
"CC[C@H](C)[C@H](NC(=O)[C@H](CCCNC(=N)N)NC(=O)[C@H](CC(=O)O)NC(=O)[C@H](CC[S+](C)[O-])NC(=O)[C@H](CCCNC(=N)N)NC(=O)CNC(=O)CNC(=O)Cc1ccc2ccccc2c1)C(N)=O (stereo partly drawn) [AP515, (2-NA)--G--G--R--MSO--D--R--I--NH2] ({Acetyl(2-naphthyl)}-GGR[Met(O)]DRI-NH2)",> 400,"very low, if any, activity"
"CC[C@H](C)[C@H](NC(=O)[C@H](CO)NC(=O)[C@H](CC(=O)O)NC(=O)[C@@H](NC(=O)[C@H](CCCNC(=N)N)NC(=O)CNC(=O)CNC(=O)Cc1ccc2ccccc2c1)[C@@H](C)CC)C(N)=O [AP516, (2-NA)--G--G--R--I--D--S--I--NH2] ({Acetyl(2-naphthyl)}-GGRIDSI-NH2)",399,"very low, if any, activity"

# More lines, now with the values ahead:
Ki(app) [nM],"receptor binding / activity as judged by Ki, in words",Compound
20.0,,"CC[C@H](C)[C@H](NC(=O)[C@H](CCC(N)=O)NC(=O)[C@H](CC(=O)O)NC(=O)[C@@H](NC(=O)[C@H](CCCNC(=N)N)NC(=O)CNC(=O)CNC(=O)Cc1ccc2ccccc2c1)[C@@H](C)CC)C(N)=O [AP351, (2-NA)--G--G--R--I--D--Q--I--NH2] ({Acetyl(2-naphthyl)}-GGRIDQI-NH2)"
267.0,"very low, if any, activity","CCCC[C@H](NC(=O)CNC(=O)CNC(=O)Cc1ccc2ccccc2c1)C(=O)N[C@H](C(=O)N[C@@H](CC(=O)O)C(=O)N[C@@H](CCCNC(=N)N)C(=O)N[C@H](C(N)=O)[C@@H](C)CC)[C@@H](C)CC [AP514, (2-NA)--G--G--Nle--I--D--R--I--NH2] ({Acetyl(2-naphthyl)}-GG[Nle]IDRI-NH2)"
38,,"CC[C@H](C)[C@H](NC(=O)[C@H](CCCNC(=N)N)NC(=O)[C@H](CCC(=O)O)NC(=O)[C@@H](NC(=O)[C@H](CCCNC(=N)N)NC(=O)CNC(=O)CNC(=O)Cc1ccc2ccccc2c1)[C@@H](C)CC)C(N)=O [AP518, (2-NA)--G--G--R--I--E--R--I--NH2] ({Acetyl(2-naphthyl)}-GGRIERI-NH2)"
